Data: US11253589B2, “Modulation of the immune response” (priority 2007, dated 2022)

Experiments:
AHR = assay: ChIP analysis of the interaction of AHR with CABS and NCABS in foxp3; type: cell-based, mouse; conditions: CD4+ T cells treated with TCDD for 90'
Method: Briefly, cells were treated for 90′ with TCDD, fixed with 1% formaldehyde for 15 minutes and quenched with 0.125 M glycine. Chromatin was isolated and sheared to an average length of 300-500 bp by sonication. Genomic DNA (input) was prepared by treating aliquots of chromatin with RNase, proteinase K and heat for de-crosslinking, followed by ethanol precipitation. AHR-bound DNA sequences were immuno-precipitated with an AHR-specific antibody (Biomol SA-210). Crosslinks were reversed by incubation overnight at 65° C., and ChIP DNA was purified by phenol-chloroform extraction and ethanol precipitation. Quantitative PCR reactions were then performed using the following primer pairs:
Experimental Ct values were converted to copy numbers detected by comparison with a DNA standard curve run on the same PCR plates. Copy number values were then normalized for primer efficiency by dividing by the values obtained using Input DNA and the same primer pairs. Error bars represent standard deviations calculated from the triplicate determinations.

[1] = test system: CD4+ CD62L+CD45RO- T cells; assay: In vitro differentiation of human naive CD4+ T cells, suppression and real time PCR; type: cell-based
Method: To investigate the potential of AHR targeting for the induction of human Treg we activated purified naïve CD4^+ CD62L^+CD45RO^− T cells for healthy donors for 5 days with antibodies to CD3 and CD28 in the presence of TCDD 100 nM or TGFb1 2.5 ng/ml or both.
To study the functionality of the putative human Treg induced in the presence of TCDD we studied their suppressive activity of CD4^+ CD25^High and CD4^+CD25^Low T cells following 5 days of activation in the of TCDD or TGFb1 2.5 ng/ml or both.
To investigate the mechanism mediating the suppressive activity of the TCDD-induced Treg, we analyzed them by real time PCR for the expression of several genes that have been previously linked to the suppressive function of Treg. […] Accordingly, IL-10-specific blocking antibodies could interfere with the suppressive activity of Treg induced with TCDD, but not the of those induced with TGFb1 and TCDD (FIG. 42). Thus, TCDD-induced CD4^+CD25^High T cells are FoxP3^− regulatory cells whose suppressive activity is mediated, at least partially, via IL-10, resembling the phenotype of type 1 Treg (Roncarolo et al., Immunol Rev. 212, 28 (2006); Roncarolo and Gregori, Eur J Immunol. 38, 925 (2008)).

Clc1cc2c(cc1Cl)Oc1cc(Cl)c(Cl)cc1O2 [TCDD, 2,3,7,8 tetrachlorodibenzo-p-dioxin]
AHR binding to NCABS-1, NCABS-3 in foxp3 (ChIP) (AHR): No significant increase in AHR binding
AHR binding to the CABS and NCABS-2 in foxp3 (ChIP) (AHR): increased AHR binding to the CABS and NCABS-2
induction of suppressive (regulatory) T cells ([1]; 5 days activation with antibodies to CD3 and CD28, TGFb1 2.5 ng/ml or TCDD alone): generation of both CD4^+ CD25^High and CD4^+ CD25^Low functional human regulatory T cells
IL-10 expression (real time PCR) ([1]; TCDD 100 nM): increased levels of IL-10
FoxP3 expression (real time PCR) ([1]; TCDD 100 nM and TGFb1 2.5 ng/ml): significantly up-regulated
FoxP3 expression (real time PCR) ([1]; TCDD 100 nM in the absence of TGFb1): marginal induction of FoxP3 expression
induction of CD4+ FoxP3+ T cells ([1]; TCDD 100 nM, antibodies to CD3 and CD28, 5 days): in some (FIG. 36) but not all human samples
suppressive activity of T cells generated with TCDD ([1]; TCDD together with TGFb1 2.5 ng/ml): amplified in the presence of TGFb1
